Values quoted from earlier work in US10406122B2 (priority 2011, dated 2019).

Columns and labels:
[1] = tramadol […] [100 mg] p.o., single dose; cited from earlier work
[2] = system: patients undergoing abdominal surgery; conditions: within the first 90 minutes of treatment; cited from earlier work
postoperative pain = conditions: after 4 to 6 hours, IV or IM intermittent injection; cited from earlier work
[3] = system: experienced opioid abusers; conditions: cited from earlier work

Row | Compound | AUC [1] | Cmax [1] | Tmax [1] | t1/2 [1] | responder rate (no or slight pain) [2] | reduction of pain intensity (postoperative pain) | ratings of feel drug effect compared to placebo ([3]; IV over 5 minutes) | ratings of liking / ARCI-MBG scale ([3]; tramadol 100 and 200 mg IV, morphine 10 and 20 mg IV, over 5 minutes)
1 | (+)-O-desmethyltramadol [(+)-M1] | 1258 ± 410 ng·h/mL | 147 ± 39 ng/mL | 1.6 ± 0.5 h | 6.0 ± 1.0 h |  |  |  | 
2 | CN1CC[C@]23c4c5ccc(O)c4O[C@H]2[C@@H](O)C=C[C@H]3[C@H]1C5 [morphine] |  |  |  |  | 81.2% | 69.8% | significantly increased ratings | significantly increased ratings
